Experimental data: patent US20100280053A1, “CyclopropylmethYl-[7-(5,7-dimethyl-benzo[1,2,5]thiodiazol-4-yl)-2,5,6-trimethyl-7H-pyrrolo[2,3-d]pyrimidin-4-yl]-4-propyl-amine as a CRF Antagonist” (NOVARTIS AG, priority 2003, published 2010)

Target: T1, human recombinant CRF1 (Homo sapiens, UniProt P34998)
T1 construct: expressed in transfected cells
T1 sequence (P34998 24-415): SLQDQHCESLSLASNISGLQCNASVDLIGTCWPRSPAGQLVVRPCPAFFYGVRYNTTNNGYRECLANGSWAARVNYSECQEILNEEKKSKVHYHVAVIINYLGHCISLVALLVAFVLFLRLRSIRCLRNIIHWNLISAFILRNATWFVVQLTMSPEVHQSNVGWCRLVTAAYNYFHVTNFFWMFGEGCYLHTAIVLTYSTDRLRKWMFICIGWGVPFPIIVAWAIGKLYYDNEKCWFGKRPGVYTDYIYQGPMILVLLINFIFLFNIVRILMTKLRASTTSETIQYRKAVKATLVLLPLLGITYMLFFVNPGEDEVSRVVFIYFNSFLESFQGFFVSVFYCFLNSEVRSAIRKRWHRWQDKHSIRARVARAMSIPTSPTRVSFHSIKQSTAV
Assay: Inhibition of CRF-stimulated cyclic AMP accumulation in CHO cells expressing human recombinant CRF1
Assay type: cell-based
Conditions: CRF concentration-response curves in presence of antagonist (1 nM-1 μM)
Description: Chinese hamster ovary (CHO) cells expressing human recombinant CRF1 (Chen et al., Proc Natl Acad Sci USA 90, 8967-8971, 1993) are propagated in Dulbecco's modified Eagle medium supplemented with 10% foetal calf serum, non-essential aminoacids, 100 U/ml penicillin, 100 mg/l streptomycin and 1 g/l geneticin (G418). For cyblic AMP determinations, cells are grown to confluence in 24-multiwell plates. Stimulation of cyclic AMP accumulation by CRF (human/rat form) is measured in intact cells, using the [^3H]adenine labelling technique, as described previously (Schoeffter et al., Neuropharmacology 36, 429-437, 1997).
Concentration-response curves for CRF are constructed in the presence of putative antagonists (1 nM-1 μM) or vehicle (dimethyl sulfoxide 1% vol). IC50 values of antagonists are calculated by fitting the percent inhibition of the effect of CRF (10 nM) by increasing concentrations of the antagonists. The fit is done using the nonlinear logistic function of the Origin software package (OriginLab Corporation, Northampton, Mass., USA).

CCCN(CC1CC1)c1nc(C)nc2c1c(C)c(C)n2-c1c(C)cc(C)c2nsnc12 [compound of formula A, Cyclopropylmethyl-[7-(5,7-dimethyl-benzo[1,2,5]thiadiazol-4-yl)-2,5,6-trimethyl-7H-pyrrolo[2,3-d]pyrimidin-4-yl]-propyl-amine]
mode of CRF1 receptor antagonism: non-competitive CRF1 receptor antagonist
